Laboratory results as given in US9113629B2, “4-amino-6-(4-substituted-phenyl)-picolinates and 6-amino-2-(4-substituted-phenyl)-pyrimidine-4-carboxylates and their use as herbicides” (DOW AGROSCIENCES LLC, priority 2013, dated 2015).

Tested on: not given
Assay: not given
Conditions: not given

melting point	Structure (SMILES)
158.9 to 161.2 °C	C#Cc1ccc(-c2cc(N)c(Cl)c(C(=O)OC)n2)cc1 [Compound 126]

Tested on: Key Broadleaf Weed and Crop Species
Assay: Post-emergent Test II herbicidal activity (Table 5)
Format: in vivo
Conditions: post-emergence, 336 h; ABUTH: velvetleaf (Abutilon theophrasti); 70 g ai/ha; post-emergent; 14 days after application; read-out: Visual Growth Reduction (%) 14 Days After Application ABUTH
Method in brief: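 Test species were raised 7–21 d under greenhouse conditions until reaching the first or second true leaf, sprayed with formulated compound at 187 L/ha, and kept subirrigated to avoid wash-off. Fourteen days later, damage was rated visually on a 0–100% scale against untreated plants.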

Structure (SMILES)	pest or weed control at 70 g/ha
C#Cc1ccc(-c2cc(N)c(Cl)c(C(=O)OC)n2)cc1 [Compound 126]	95 to 100%

Same assay, conditions: post-emergence, 336 h; ABUTH: velvetleaf (Abutilon theophrasti); 140 g ai/ha; post-emergent; 14 days after application; read-out: Visual Growth Reduction (%) 14 Days After Application ABUTH

Structure (SMILES)	pest or weed control at 140 g/ha
C#Cc1ccc(-c2cc(N)c(Cl)c(C(=O)OC)n2)cc1 [Compound 126]	95 to 100%

Same assay, conditions: post-emergence, 336 h; AMARE: redroot pigweed (Amaranthus retroflexus); 70 g ai/ha; post-emergent; 14 days after application; read-out: Visual Growth Reduction (%) 14 Days After Application AMARE

Structure (SMILES)	pest or weed control at 70 g/ha
C#Cc1ccc(-c2cc(N)c(Cl)c(C(=O)OC)n2)cc1 [Compound 126]	95 to 100%

Same assay, conditions: post-emergence, 336 h; AMARE: redroot pigweed (Amaranthus retroflexus); 140 g ai/ha; post-emergent; 14 days after application; read-out: Visual Growth Reduction (%) 14 Days After Application AMARE

Structure (SMILES)	pest or weed control at 140 g/ha
C#Cc1ccc(-c2cc(N)c(Cl)c(C(=O)OC)n2)cc1 [Compound 126]	95 to 100%

Same assay, conditions: post-emergence, 336 h; BRSNN: oilseed-rape, canola (Brassica napus); 70 g ai/ha; post-emergent; 14 days after application; read-out: Visual Growth Reduction (%) 14 Days After Application BRSNN

Structure (SMILES)	pest or weed control at 70 g/ha
C#Cc1ccc(-c2cc(N)c(Cl)c(C(=O)OC)n2)cc1 [Compound 126]	75 to 84%

Same assay, conditions: post-emergence, 336 h; BRSNN: oilseed-rape, canola (Brassica napus); 140 g ai/ha; post-emergent; 14 days after application; read-out: Visual Growth Reduction (%) 14 Days After Application BRSNN

Structure (SMILES)	pest or weed control at 140 g/ha
C#Cc1ccc(-c2cc(N)c(Cl)c(C(=O)OC)n2)cc1 [Compound 126]	85 to 94%

Same assay, conditions: post-emergence, 336 h; CHEAL: lambsquarters (Chenopodium album); 70 g ai/ha; post-emergent; 14 days after application; read-out: Visual Growth Reduction (%) 14 Days After Application CHEAL

Structure (SMILES)	pest or weed control at 70 g/ha
C#Cc1ccc(-c2cc(N)c(Cl)c(C(=O)OC)n2)cc1 [Compound 126]	95 to 100%

Same assay, conditions: post-emergence, 336 h; CHEAL: lambsquarters (Chenopodium album); 140 g ai/ha; post-emergent; 14 days after application; read-out: Visual Growth Reduction (%) 14 Days After Application CHEAL

Structure (SMILES)	pest or weed control at 140 g/ha
C#Cc1ccc(-c2cc(N)c(Cl)c(C(=O)OC)n2)cc1 [Compound 126]	95 to 100%

Same assay, conditions: post-emergence, 336 h; EPHHL: wild poinsettia (Euphorbia heterophylla); 70 g ai/ha; post-emergent; 14 days after application; read-out: Visual Growth Reduction (%) 14 Days After Application EPHHL

Structure (SMILES)	pest or weed control at 70 g/ha
C#Cc1ccc(-c2cc(N)c(Cl)c(C(=O)OC)n2)cc1 [Compound 126]	95 to 100%

Same assay, conditions: post-emergence, 336 h; EPHHL: wild poinsettia (Euphorbia heterophylla); 140 g ai/ha; post-emergent; 14 days after application; read-out: Visual Growth Reduction (%) 14 Days After Application EPHHL

Structure (SMILES)	pest or weed control at 140 g/ha
C#Cc1ccc(-c2cc(N)c(Cl)c(C(=O)OC)n2)cc1 [Compound 126]	95 to 100%

Same assay, conditions: post-emergence, 336 h; HELAN: sunflower (Helianthus annuus); 70 g ai/ha; post-emergent; 14 days after application; read-out: Visual Growth Reduction (%) 14 Days After Application HELAN

Structure (SMILES)	pest or weed control at 70 g/ha
C#Cc1ccc(-c2cc(N)c(Cl)c(C(=O)OC)n2)cc1 [Compound 126]	85 to 94%

Same assay, conditions: post-emergence, 336 h; HELAN: sunflower (Helianthus annuus); 140 g ai/ha; post-emergent; 14 days after application; read-out: Visual Growth Reduction (%) 14 Days After Application HELAN

Structure (SMILES)	pest or weed control at 140 g/ha
C#Cc1ccc(-c2cc(N)c(Cl)c(C(=O)OC)n2)cc1 [Compound 126]	95 to 100%

Same assay, conditions: post-emergence, 336 h; VIOTR: wild pansy (Viola tricolor); 70 g ai/ha; post-emergent; 14 days after application; read-out: Visual Growth Reduction (%) 14 Days After Application VIOTR

Structure (SMILES)	pest or weed control at 70 g/ha
C#Cc1ccc(-c2cc(N)c(Cl)c(C(=O)OC)n2)cc1 [Compound 126]	0 to 29%

Same assay, conditions: post-emergence, 336 h; VIOTR: wild pansy (Viola tricolor); 140 g ai/ha; post-emergent; 14 days after application; read-out: Visual Growth Reduction (%) 14 Days After Application VIOTR

Structure (SMILES)	pest or weed control at 140 g/ha
C#Cc1ccc(-c2cc(N)c(Cl)c(C(=O)OC)n2)cc1 [Compound 126]	30 to 44%
